# According to patent US4962109A, “Insecticidally and acaricidally active pyrimidine esters and intermediates therefor” (Imperial Chemical Industries PLC, priority 1985, dated 1990):
# Key:
# Type in all cases: in vivo
# [1] = test system: Tetranychus urticae (spider mites - adult); test: Contact test on spider mites - adult (TUa), French bean leaf, mortality; conditions: 72 h, 500 ppm, contact, 3 days, read-out: TUa grading of mortality
# Outline: (§1)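 Product dissolved in acetone, diluted in water with 0.01% wetting agent to 500, 250 or 100 ppm; pests and/or host medium (plant or foodstuff) treated. Mortality or knockdown assessed 1–3 days later, graded A (80–100%), B (50–79%) or C (<50%).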
# [2] = test system: Tetranychus urticae (spider mites - ova); test: Contact test on spider mites - ova (TUe), French bean leaf, mortality; conditions: 144 h, 500 ppm, contact, 6 days, read-out: TUe grading of mortality
# Outline: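 Graded read-out: A 80-100%, B 50-79%, C below 50% mortality or knockdown, assessed usually 1-3 days post-treatment. Liquid preparations at 500, 250 or 100 ppm by weight, from acetone solution diluted in water with 0.01% wetting agent, applied to pests and/or their host plant or food medium.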
# Myzus persicae (aphids) = test: Contact test on aphids (MP), Chinese Cabbage leaf, mortality; conditions: 72 h, 500 ppm, contact, 3 days, read-out: MP grading of mortality
# Outline: as §1
# [3] = test system: Nephotettix cincticeps (green leaf hopper - nymphs); test: Contact test on green leaf hopper nymphs (NC), Rice plant, mortality; conditions: 48 h, 500 ppm, contact, 2 days, read-out: NC grading of mortality
# Outline: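 Product dissolved in acetone, diluted in water with 0.01% wetting agent to 500, 250 or 100 ppm; nymphs and/or host rice plants treated. Mortality or knockdown assessed 1–3 days later, graded A (80-100%), B (50-79%), C (<50%).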
# [4] = test system: Musca domestica (houseflies - adults); test: Knockdown test on houseflies - adults (MD/KD), Cotton wool/sugar; conditions: 500 ppm, 4 hours, read-out: MD/KD grading of knockdown
# Outline: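 Adult houseflies exposed to the compound at 500, 250 or 100 ppm in acetone/water with 0.01% wetting agent, on a cotton wool/sugar medium. Knockdown and mortality assessed, graded A (80-100%), B (50-79%) or C (<50%).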
# [5] = test system: Musca domestica (houseflies - adults); test: Contact test on houseflies - adults (MD), Cotton wool/sugar, mortality; conditions: 72 h, 500 ppm, contact, 3 days, read-out: MD grading of mortality
# Outline: as §1
# [6] = test system: Blattella germanica (cockroach nymphs); test: Contact test on cockroach nymphs (BG/C), Plastic pot, mortality; conditions: 48 h, 500 ppm, contact, 2 days, read-out: BG/C grading of mortality
# Outline: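 Cockroach nymphs and/or their medium were treated with aqueous preparations at 500, 250 or 100 ppm (acetone solution diluted in water with 0.01% Lissapol NX wetting agent). Mortality or knockdown was assessed typically 1–3 days later and graded A (80–100%), B (50–79%) or C (<50%).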
# [7] = test system: Heliothis virescens (tobacco budworm - larvae); test: Residual test on tobacco budworm larvae (HV), Cotton leaf, mortality; conditions: 48 h, read-out: HV grading of mortality
# Outline: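 Product in acetone diluted with water containing 0.01% Lissapol NX, at 500, 250 or 100 ppm; pests and/or host medium (here cotton leaf) treated. Mortality scored one to three days later, graded A (80-100%), B (50-79%), C (<50%).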
# [8] = test system: Spodoptera exigua (lesser army worm - larvae); test: Residual test on lesser army worm larvae (SP), Cotton leaf, mortality; conditions: 48 h, 500 ppm, residual, 2 days, read-out: SP grading of mortality
# Outline: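 Product dissolved in acetone and diluted in water with 0.01% wetting agent to 500, 250 or 100 ppm; larvae and/or cotton leaf host treated. Mortality or knockdown scored one to three days later and graded A (80-100%), B (50-79%) or C (<50%).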
# [9] = test system: Diabrotica balteata (rootworm larvae); test: Residual test on rootworm larvae (DB), Filter paper/maize seed, mortality; conditions: 48 h, 500 ppm, residual, 2 days, read-out: DB grading of mortality
# Outline: as §1
SMILES,mortality at 500 ppm [1] [%],mortality at 500 ppm [2] [%],mortality at 500 ppm (Myzus persicae (aphids)) [%],mortality at 500 ppm [3] [%],pest or weed control at 500 ppm [4] [%],mortality at 500 ppm [5] [%],mortality at 500 ppm [6] [%],mortality at 500 ppm [7] [%],mortality at 500 ppm [8] [%],mortality at 500 ppm [9] [%]
"CCOCc1c(F)c(F)c(COC(=O)C(c2cnc(C(C)(C)C)nc2)C(C)(C)C)c(OCC)c1F (racemic) [Compound 188, 2,3,5-trifluoro-6-ethoxy-4-(ethoxymethyl)benzyl (RS)-2-[2-(1,1-dimethylethyl)pyrimidin-5-yl]-3,3-dimethylbutanoate]",80 to 100,< 50,80 to 100,50 to 79,< 50,< 50,< 50,50 to 79,80 to 100,< 50
"CC(C)OCc1c(F)c(F)c(COC(=O)C(c2cnc(C(C)(C)C)nc2)C(C)(C)C)c(F)c1F (racemic) [Compound 189, 2,3,5,6-tetrafluoro-4-[(1-methyl)ethoxy]methylbenzyl (RS)-2-[2-(1,1-dimethylethyl)-pyrimidin-5-yl]-3,3dimethylbutanoate]",80 to 100,< 50,80 to 100,80 to 100,50 to 79,< 50,< 50,< 50,80 to 100,< 50
"COc1c(F)c(COC(C)C)c(F)c(F)c1COC(=O)C(c1cnc(C(C)(C)C)nc1)C(C)(C)C (racemic) [Compound 190, 2,3,5-trifluoro-6-methoxy-4-[(1-methyl)ethoxy]methylbenzyl (RS)-2-[2-(1,1-dimethylethyl)pyrimidin-5-yl]-3,3-dimethylbutanoate]",80 to 100,< 50,80 to 100,80 to 100,80 to 100,< 50,< 50,80 to 100,80 to 100,< 50
"CC(C)(C)c1ncc(C(C(=O)OCc2c(F)c(F)c(COc3ccccc3)c(F)c2F)C(C)(C)C)cn1 (racemic) [Compound 192, 2,3,5,6-tetrafluoro-4-(phenoxymethyl)benzyl (RS)-2-[2-(1,1-dimethylethyl)pyrimidin-5-yl]-3,3-dimethylbutanoate]",80 to 100,< 50,50 to 79,< 50,< 50,< 50,< 50,< 50,80 to 100,< 50
"COc1c(F)c(COc2ccccc2)c(F)c(F)c1COC(=O)C(c1cnc(C(C)(C)C)nc1)C(C)(C)C (racemic) [Compound 193, 2,3,5-trifluoro-6-methoxy-4-(phenoxymethyl)benzyl (RS)-2-[2-(1,1-dimethylethyl)pyrimidin-5-yl]-3,3-dimethylbutanoate]",80 to 100,< 50,80 to 100,50 to 79,< 50,< 50,< 50,< 50,80 to 100,< 50
"CCOc1c(F)c(COc2ccccc2)c(F)c(F)c1COC(=O)C(c1cnc(C(C)(C)C)nc1)C(C)(C)C (racemic) [Compound 194, 2,3,5-trifluoro-6-ethoxy-4-(phenoxymethyl)benzyl (RS)-2-[2-(1,1-dimethylethyl)pyrimidin-5-yl]-3,3-dimethylbutanoate]",80 to 100,< 50,< 50,< 50,< 50,< 50,< 50,< 50,80 to 100,< 50
"COCc1c(F)c(F)c(CSC(=O)C(c2cnc(C(C)(C)C)nc2)C(C)(C)C)c(F)c1F (racemic) [Compound 195, 4-(methoxymethyl)-2,3,5,6-tetrafluorobenzyl (RS)-2-[2-(1,1-dimethylethyl)pyrimidin-5-yl]-3,3-dimethylbutanthioate]",80 to 100,80 to 100,80 to 100,80 to 100,< 50,< 50,< 50,80 to 100,80 to 100,80 to 100
CC(C)(C)c1ncc(C(C(=O)SCc2c(F)c(F)c(CO)c(F)c2F)C(C)(C)C)cn1 (racemic) [Compound 196],< 50,< 50,< 50,< 50,< 50,< 50,< 50,< 50,80 to 100,< 50
"CC(C)c1ncc(C(C(=O)OCc2ccc(F)c(Oc3ccccc3)c2)C(C)(C)C)cn1 (racemic) [Compound 197, 4-fluoro-3-phenoxybenzyl (RS)-2-[2-(1-methylethyl)pyrimidin-5-yl]-3,3-dimethylbutanoate]",80 to 100,80 to 100,80 to 100,80 to 100,80 to 100,< 50,< 50,80 to 100,80 to 100,80 to 100
"C[C@@H](OC(=O)[C@@H](c1cnc(N(C)C)nc1)C(C)(C)C)c1cccc(Oc2ccccc2)n1 (racemic) [Compound 198, (RS)-1-(6-phenoxypyrid-2-yl)ethyl (RS)-2-[2-(N,N-dimethylamino)pyrimidin-5-yl]-3,3-dimethylbutanoate]",80 to 100,< 50,80 to 100,80 to 100,80 to 100,< 50,80 to 100,80 to 100,80 to 100,80 to 100
COCc1c(F)c(F)c(COC(=O)C(c2cnc(N(C)C)nc2)C(C)(C)C)c(F)c1F (racemic) [Compound 199],80 to 100,80 to 100,80 to 100,80 to 100,80 to 100,80 to 100,80 to 100,80 to 100,80 to 100,50 to 79
"CN(C)c1ncc(C(C(=O)OCc2ccc(F)c(Oc3ccccc3)c2)C(C)(C)C)cn1 (racemic) [Compound 200, 4-fluoro-3-phenoxybenzyl (RS)-2-[2-(N,N-dimethylamino)pyrimidin-5-yl]-3,3-dimethylbutanoate]",80 to 100,< 50,80 to 100,80 to 100,80 to 100,< 50,< 50,80 to 100,80 to 100,< 50
